Assay [1] concerns TNFα. Briefly: LPS Mouse Assay, serum TNFα. To be noted: mice, i.p. or oral dosing 30 minutes before 1 mg/kg LPS i.p.; serum 2 hours after LPS, ELISA. In kind it is in vivo, Balb C ByJ mice. How it is done:
(§1) 7 week old Balb C ByJ mice (24-28 g) were administered, either by i.p. (5 ml/kg) or oral (10 ml/kg) administration, with vehicle or test article. 30 minutes later these animals were challenged with an intraperitoneal injection of 1 mg/kg LPS. 2 hours after LPS challenge blood samples were collected under light isoflurane anaesthesia into normal tubes by retro-orbital puncture. Samples were allowed to clot at room temperature and then spun at 6000 g for 3 min at 4° C. Serum was stored at −20° C. until use. Serum TNFα and IL-10 levels were analysed in duplicate by ELISA technique.
On the technique in general: ELISA stands for enzyme-linked immunosorbent assay.

For assay [2], the system named is LPS-induced model of cytokine release. Nature of the assay: LPS Mouse Assay, overall cytokine modulation. In kind it is in vivo, Balb C ByJ mice. To be noted: LPS-challenged mice, serum TNFα and IL-10. The protocol: as §1
Assay [3] deals with IL-10. Briefly: LPS Mouse Assay, serum IL-10. In kind it is in vivo, Balb C ByJ mice. To be noted: mice, i.p. or oral dosing 30 minutes before 1 mg/kg LPS i.p.; serum 2 hours after LPS, ELISA. How it is done: as §1
Assay [4] concerns SJL mouse EAE model. Nature of the assay: Experimental Autoimmune Encephalitis. It counts as in vivo. To be noted: SJL mice, orally 10 mg/kg once a day from the first day. The protocol:
Experimental Autoimmune Encephalitis
Acclimatised SJL mice were sensitised by a subcutaneous injection proteolipid protein (PLP) in Freund's complete adjuvant (CFA) acting as an encephalitogenic inoculum. Innoculum was administered subcutaneously at a concentration of 125 μg PLP/300 μg CFA in a volume of 200 μl. 48 hours later, an intraperitoneal injection of pertussis toxin (PTX) was administered at a dose of 20 μg/kg, to increase blood-brain barrier permeability.
Compound (6) was administered from the first day of the experiment and once a day until the end, orally at a dose of 10 mg/kg. Copaxone was administered intraperitoneally at a dose of 25 mg/kg. Throughout the experiment, careful clinical examinations and body weights were taken to observe the well being of the animal.

In assay [5] the test system is intraplantar carrageenan induced paw oedema. Briefly: Carrageenan Paw Assay. To be noted: rats, oral gavage half an hour before carrageenan; paw volume AUC 1-5 hours. In kind it is in vivo, male Wistar rats. How it is done:
Fasted (18 hour) male Wistar rats (105-130 g) were weighed and a basal mercury plethysmometer reading was taken of the right hind paw by submerging the paw in the mercury up to the tibiotarsal joint. Subsequently, vehicles, reference items and test articles were administered by oral gavage (10 ml/kg). Half an hour after treatment, 0.1 ml of 2% carrageenan in 0.9% saline was injected into the subplanatar area of the right hind paw. The right paw was measured again with the plethysmometer at 1, 2, 3, 4 and 5 hours after carrageenan administration. Paw volume effects was expressed as the area under the curve for paw volume over time. Activity (inhibition of paw volume) was expressed as the % antiinflammatory activity versus the vehicle control.
(In general: In the carrageenan paw model, swelling and tenderness develop within hours.)

The test system of assay [6] is adjuvant arthritis. Nature of the assay: Rat Adjuvant Assay. It counts as in vivo, Male Wistar rats. To be noted: rats, oral once a day from day 11; for paw oedema / paw inflammation: doses 3, 10 and 30 mg/kg. How it is done:
Male Wistar rats (180 to 200 g) were inoculated by subplantar injection of Freund's adjuvant (suspension of Mycobacterium butyricum in mineral oil) into the right paw at day 0. Sham inoculations were injected in the same way with 0.9% saline in matched Male Wistar rats. On day 2, animals were weighed. On days 3, 4, 7, 9 and 11, animals were weighed and both their right and left hind paws were measured by plethsymometry by submerging the paw up to the tibiotarsal joint. On day 11, rats with left hind paw volumes increased by 20% were selected for continuance in the study. On the same day, continuance rats were administered test article orally (10 ml/kg in distilled water) and from then on once a day until the completion of the study. Left and right hind paw volumes were measured on days 11, 14, 15, 16, 18 and 21.

In assay [7] the test system is dextran sulphate induced colonic inflammation. Nature of the assay: DSS Induced Colitis. To be noted: mice, 3% dextran sulphate. It counts as in vivo, BDF1 male mice. How it is done:
8-10 week old BDF1 male mice (˜30 g) were housed in normal conditions. At the start of the study normal water was exchanged for a 3% dextran sulphate solution to induce colonic inflammation. Concurrently actarit and the positive control budesonide were administered rectally twice a day for 7 days. On day 8 the animal were sacrificed and the large intestine was removed. The lower two thirds were assessed for histological severity (scoring system; 1 mild to 4 severe). Mice were assessed for cumulative rectal bleeding scores, diarrheal scores and cumulative hemoccult measurements.

Entries after “also recorded” stand apart in the source; their conditions may differ.

Take `C[C@@H](NC(C)(C)C)[C@H](O)c1cccc(Cl)c1` (racemic) [Compound 7, (+/−)-(threo)-2-tert-Butylamino-1-(3-chlorophenyl)propan-1-ol]: the “effect on TNF alpha secretion induced by LPS” value (“effect … by LPS” for short) in assay [1] is listed as “inhibiting TNF alpha at all doses administrated; also recorded: small inhibitory effect on TNF alpha at the highest dose”.
As for `CC(NC(C)(C)C)C(=O)c1cccc(Cl)c1` (stereo not shown) [Compound 3, 2-tert-Butylamino-1-(3-chlorophenyl)propan-1-one, reference compound], the cytokine modulatory activity result in assay [2] is reported as “very weak cytokine modulatory activity”. For the same compound, the “effect on IL-10 secretion” value in assay [3] is “not present”. Moreover, the “effect … by LPS” value in assay [1] was “small effect”.
Regarding “(+)-(erythro)-2-tert-Butylamino-1-(3-chlorophenyl)propan-1-ol [Compound 6]”, in assay [2], the cytokine modulatory activity entry was “good cytokine modulatory profiles”. Further, in assay [3], the “effect on IL-10 secretion” value is “potentiated II-10 secretion”. Further, the “effect on second relapse of EAE” value in assay [4] is reported as “completely ameliorated the second relapse”. Moreover, the “anti-inflammatory effect against carrageenan induced paw oedema” value in assay [5] is “dose-dependant anti-inflammatory effect”. Moreover, in assay [1], the “effect … by LPS” value is “inhibited”. In addition, the “protective effects against adjuvant arthritis” value in assay [6] was “protective effects”. The “paw oedema / paw inflammation” value in assay [6] is listed as “inhibited paw inflammation at all doses”. The “comparative effectiveness of (6) against (5) in DSS colitis” value in assay [7] was “marginally more effective”. The “effect on histological scores induced by oral dextran sulphate” value in assay [7] (lower dose) is given as “large ameliorating effect”; in assay [7] (top dose) it was “marked effect”.
On to “(+/−)-(erythro)-2-tert-Butylamino-1-(3-chlorophenyl)propan-1-ol [Compound 8]”, for which the cytokine modulatory activity result in assay [2] is on record as “cytokine modulatory effects”.
For “(−)-(erythro)-2-tert-Butylamino-1-(3-chlorophenyl)propan-1-ol [Compound 5]”, in assay [2], the cytokine modulatory activity entry is “good cytokine modulatory profiles”. Also, in assay [3], the “effect on IL-10 secretion” value is “no effect on IL-10 levels”. For the same compound, in assay [5], the “anti-inflammatory effect against carrageenan induced paw oedema” value is reported as “dose-dependant anti-inflammatory effect”. Besides, in assay [1], the “effect … by LPS” value was “inhibited TNFα production”. Besides, in assay [6], the “protective effects against adjuvant arthritis” value was “protective effects” and the “paw oedema / paw inflammation” value was “reduced paw oedema at the top two doses”. Further, the “effect on histological scores induced by oral dextran sulphate” value in assay [7] (top dose) is recorded as “marked effect”.

The record behind these values is patent US8030357B2, “Use of bupropion metabolites for the treatment of inflammatory disorders” (Biocopea Limited, priority 2006, dated 2011).
